Measured values taken from patent US20110152086A1, “Herbicidal Compositions Comprising Flufenacet” (BAYER CROPSCIENCE AG, priority 2009, published 2011).
Where two headings read alike, the source gives them in different places.

Key:
LOLSS = assay: Greenhouse trial, PE application on sensitive and resistant biotypes (Table 5); format: in vivo, Lolium species; settings: for activity, LOLSS resistant: resistant biotype; for activity, LOLSS resistant / activity, LOLSS Sensitive: (A) 90, (B) 1200, iodosulfuron 10 g of AS/ha; for activity, LOLSS Sensitive: sensitive biotype
Description: (§1) In the standard design of the test, seeds of various broad-leaved weed and weed grass biotypes (origins) were sown in a 8-13 cm diameter pot filled with natural soil of a standard field soil (loamy silt; non-sterile) and covered with a covering soil layer of about 1 cm. The pots were then cultivated in a greenhouse (12-16 h of light, temperature day 20-22° C., night 15-18° C.) until the time of application. The pots were treated on a laboratory track sprayer with spray liquors comprising the compositions according to the invention, mixtures of the prior art or components used individually. Application of the active compounds or active compound combinations formulated as WG, WP, EC or otherwise was carried out at the appropriate growth stages of the plants. The application rate for the spray application was 100-600 l of water/ha. After the treatment, the plants were returned to the greenhouses.
(§2) About 3 weeks after the application, the soil action or/and foliar action was assessed visually according to a scale of 0-100% in comparison to an untreated comparative group: 0%=no noticeable effect compared to the untreated comparative group; 100%=full effect compared to the untreated comparative group.
(§3) (notes: the term “seeds” also includes vegetative propagation forms such as, for example, rhizome pieces; abbreviations used: h light=hours of illumination, g of AS/ha=gram of active substance per hectare, l/ha=liter per hectare, S=sensitive, R=resistant) • 1. Pre-emergence action against weeds: seeds of various broad-leaved weed and weed grass biotypes (origins) were sown in a 8-13 cm diameter pot filled with natural soil of a standard field soil (loamy silt; non-sterile) and covered with a covering soil layer of about 1 cm. The pots were then cultivated in a greenhouse (12-16 h of light, temperature day 20-22° C., night 15-18° C.) until the time of application. The pots were treated at the BBCH stage 00-10 of the seeds/plants on a laboratory track sprayer with spray liquors comprising the compositions according to the invention, mixtures or components used individually, as WG, WP, EC or other formulations. The application rate for the spray application was 100-600 l of water/ha. After the treatment, the plants were returned to the greenhouses and, when required, treated with fertilizer and watered. • 2. Post-emergence action against weeds: seeds of various broad-leaved weed and weed grass biotypes (origins) were sown in a 8-13 cm diameter pot filled with natural soil of a standard field soil (loamy silt; non-sterile) and covered with a covering soil layer of about 1 cm. The pots were then cultivated in a greenhouse (12-16 h of light, temperature day 20-22° C., night 15-18° C.) until the time of application. The pots were treated at various BBCH stages between 11-25 of the seeds/plants, i.e. generally between two to three weeks after the start of the cultivation, on a laboratory track sprayer with spray liquors comprising the compositions according to the invention, mixtures or components used individually, as WG, WP, EC or other formulations. The application rate for the spray application was 100-600 l of water/ha. After the treatment, the plants were returned to the greenhouses and, when required, treated with fertilizer and watered. • 3. Pre-emergence action against weeds with and without incorporation of active compound: seeds of various broad-leaved weed and weed grass biotypes (origins) were sown in a 8-13 cm diameter pot filled with natural soil of a standard field soil (loamy silt; non-sterile). […]

PAPRH = assay: as above; format: in vivo; settings: for activity, PAPRH resistant: resistant biotype; for activity, PAPRH resistant / activity, PAPRH Sensitive: (A) 90, (B) 1200, iodosulfuron 10 g of AS/ha; for activity, PAPRH Sensitive: sensitive biotype
Description: as §1, §2, §3

STEME [1] = assay: Greenhouse trial, PO application (Table 2); format: in vivo, Stellaria media; settings: (A) 120, (B) 1600 g of AS/ha
Description: as §1
as §2, with “group. […]” for “group.”

LOLPE [2] = assay: Greenhouse trial, PE application vs application 7 days prior to sowing (Table 3); format: in vivo, Lolium perenne; settings: (A) 90, (B) 1200 g of AS/ha
Description: as §1, §2
(§4) (notes: the term “seeds” also includes vegetative propagation forms such as, for example, rhizome pieces; abbreviations used: h light=hours of illumination, g of AS/ha=gram of active substance per hectare, l/ha=liter per hectare, S=sensitive, R=resistant) • 1. Pre-emergence action against weeds: seeds of various broad-leaved weed and weed grass biotypes (origins) were sown in a 8-13 cm diameter pot filled with natural soil of a standard field soil (loamy silt; non-sterile) and covered with a covering soil layer of about 1 cm. The pots were then cultivated in a greenhouse (12-16 h of light, temperature day 20-22° C., night 15-18° C.) until the time of application. The pots were treated at the BBCH stage 00-10 of the seeds/plants on a laboratory track sprayer with spray liquors comprising the compositions according to the invention, mixtures or components used individually, as WG, WP, EC or other formulations. The application rate for the spray application was 100-600 l of water/ha. After the treatment, the plants were returned to the greenhouses and, when required, treated with fertilizer and watered. • 2. Post-emergence action against weeds: seeds of various broad-leaved weed and weed grass biotypes (origins) were sown in a 8-13 cm diameter pot filled with natural soil of a standard field soil (loamy silt; non-sterile) and covered with a covering soil layer of about 1 cm. The pots were then cultivated in a greenhouse (12-16 h of light, temperature day 20-22° C., night 15-18° C.) until the time of application. […]

TRZAS [3] = assay: Greenhouse trial, application 7 days prior to sowing, crop (Table 3); settings: Triticum aestivum (summer wheat), in vivo
Description: as §1
as §2, with “group. […]” for “group.”

HORVS = assay: Greenhouse trial, selective PO application (Table 2); settings: Hordeum vulgare (summer barley), in vivo
Description: as §1
as §2, with “group. […]” for “group.”

POOAN = assay: Greenhouse trial, PE application vs application 7 days prior to sowing (Table 3); format: in vivo, Poa annua; settings: (A) 90, (B) 1200 g of AS/ha
Description: as §1, §2, §4

AVEFA = assay: as above; format: in vivo, Avena fatua; settings: (A) 90, (B) 1200 g of AS/ha
Description: as §1, §2, §4

LOLPE [4] = assay: Greenhouse trial, PE application with different soil types (Table 4); format: in vivo, Lolium perenne; settings: (A) 120, (B) 1200 g of AS/ha
Description: as §1, §2, §3

TRZAW = assay: Greenhouse trial, PE application, crop (Table 3); settings: Triticum aestivum (winter wheat), in vivo
Description: as §1
as §2, with “group. […]” for “group.”

VIOAR [5] = assay: Greenhouse trial, PO application (Table 2); format: in vivo, Viola arvensis; settings: (A) 120, (B) 1600 g of AS/ha
Description: as §1
as §2, with “group. […]” for “group.”

LOLPE [6] = assay: Greenhouse trial, PO application (Table 2); format: in vivo, Lolium perenne; settings: (A) 120, (B) 1600 g of AS/ha
Description: as §1
as §2, with “group. […]” for “group.”

VIOAR [7] = assay: Greenhouse trial, different sowing depths (Table 6); format: in vivo, Viola arvensis; settings: head prints PO application, (A) 90, (B) 1200 g of AS/ha; for activity, VIOAR 5 mm: sowing depth 5 mm; for activity, VIOAR 20 mm: sowing depth 20 mm
Description: as §1, §2, §4

STEME [8] = assay: as above; format: in vivo, Stellaria media; settings: PE application, (A) 90, (B) 1200 g of AS/ha; for activity, STEME 5 mm: sowing depth 5 mm; for activity, STEME 20 mm: sowing depth 20 mm
Description: as §1, §2, §4

APESV = assay: as above; format: in vivo; settings: PE application, (A) 90, (B) 1200 g of AS/ha; for activity, APESV 5 mm: sowing depth 5 mm; for activity, APESV 20 mm: sowing depth 20 mm
Description: as §1, §2, §4

VIOAR [9] = assay: Greenhouse trial, PE soil application vs incorporation into the soil (Table 1a); format: in vivo, Viola arvensis; settings: (A) 90, (B) 1200 g of AS/ha
Description: as §1, §2, §4

MATCH = assay: Greenhouse trial, different sowing depths (Table 6); format: in vivo, Matricaria chamomilla; settings: head prints PO application, (A) 90, (B) 1200 g of AS/ha; for activity, MATCH 5 mm: sowing depth 5 mm; for activity, MATCH 20 mm: sowing depth 20 mm
Description: as §1, §2, §4

TRZAS [10] = assay: Greenhouse trial, PE application with different soil types, crop (Table 4); settings: Triticum aestivum (summer wheat), in vivo
Description: as §1, §2, §3

[11] = Application 7 days prior to sowing

Compound | Difference resistant to sensitive Δ^D, LOLSS (LOLSS) | activity, LOLSS resistant (LOLSS) [%] | activity, LOLSS Sensitive (LOLSS) [%] | Difference resistant to sensitive Δ^D, PAPRH (PAPRH) | activity, PAPRH resistant (PAPRH) [%] | activity, PAPRH Sensitive (PAPRH) [%] | activity, STEME (STEME [1]) [%] | activity, LOLPE (LOLPE [2]; [11]) [%] | activity, LOLPE (LOLPE [2]; PE application) [%] | activity, TRZAS (TRZAS [3]) [%] | activity, HORVS (HORVS) [%] | activity, POOAN (POOAN; [11]) [%] | activity, POOAN (POOAN; PE application) [%] | activity, AVEFA (AVEFA; [11]) [%] | activity, AVEFA (AVEFA; PE application) [%] | Difference of the soil types Δ^D = A: activity IU/EC73 soil − B: activity IU soil, LOLPE (LOLPE [4]) | activity, LOLPE IU soil (LOLPE [4]) [%] | activity, LOLPE IU/EC73 soil (LOLPE [4]) [%] | activity, TRZAW (TRZAW) [%] | activity, VIOAR (VIOAR [5]) [%] | other results
COc1nc(C)nc(NC(=O)NS(=O)(=O)c2cc(I)ccc2C(=O)O)n1 [(C)^1 iodosulfuron] | Δ^D −48% | 50 | 98 | Δ^D −40% | 70 | 100 | – | – | – | – | – | – | – | – | – | – | – | – | – | – | Difference resistant to sensitive Δ^D, LOLSS (LOLSS; listed as standard product (C)): −48%
CCCN(CCC)C(=O)SCc1ccccc1 [(B) prosulfocarb, S-(phenylmethyl) dipropylcarbamothioate] | Δ^D −20% | 65 | 85 | Δ^D +20% | 70 | 50 | 30 | 0 | 80 | 10 | 30 | 20 | 35 | 10 | 80 | Δ^D −33% | 33 | 0 | 35 | 50 | activity, LOLPE (LOLPE [6]): 60%; activity, VIOAR 5 mm (VIOAR [7]): 60%; activity, VIOAR 20 mm (VIOAR [7]): 20%; activity, STEME 5 mm (STEME [8]): 60%; activity, STEME 20 mm (STEME [8]): 50%; activity, APESV 5 mm (APESV): 50%; activity, APESV 20 mm (APESV): 20%; activity, VIOAR (VIOAR [9]; Incorporation): 0%; activity, VIOAR (VIOAR [9]; PE application): 20%; activity, MATCH 5 mm (MATCH): 0%; activity, MATCH 20 mm (MATCH): 0%; Difference of the soil types Δ^D = A: activity IU/EC73 soil − B: activity IU soil, TRZAS (TRZAS [10]): Δ^D −5%; activity, TRZAS IU soil (TRZAS [10]): 5%; activity, TRZAS IU/EC73 soil (TRZAS [10]): 0%
CC(C)N(C(=O)COc1nnc(C(F)(F)F)s1)c1ccc(F)cc1 [(A) flufenacet, N-(4-fluorophenyl)-N-(1-methylethyl)-2-[[5-(trifluoromethyl)-1,3,4-thiadiazol-2-yl]oxy]acetamide] | Δ^D −75% | 10 | 85 | Δ^D −15% | 45 | 60 | 30 | 80 | 90 | 60 | 40 | 95 | 65 | 70 | 80 | Δ^D −22% | 97 | 75 | 30 | 40 | activity, LOLPE (LOLPE [6]): 65%; activity, VIOAR 5 mm (VIOAR [7]): 50%; activity, VIOAR 20 mm (VIOAR [7]): 10%; activity, STEME 5 mm (STEME [8]): 0%; activity, STEME 20 mm (STEME [8]): 10%; activity, APESV 5 mm (APESV): 65%; activity, APESV 20 mm (APESV): 70%; activity, VIOAR (VIOAR [9]; Incorporation): 0%; activity, VIOAR (VIOAR [9]; PE application): 0%; activity, MATCH 5 mm (MATCH): 30%; activity, MATCH 20 mm (MATCH): 30%; Difference of the soil types Δ^D = A: activity IU/EC73 soil − B: activity IU soil, TRZAS (TRZAS [10]): Δ^D −33%; activity, TRZAS IU soil (TRZAS [10]): 33%; activity, TRZAS IU/EC73 soil (TRZAS [10]): 0%
